Some test systems named below: IGROV1 ovarian; HL-60(TB) leukemia; A549 NSCLC; NCI-H522 lung; U251 CNS; M14 melanoma; UACC-62 melanoma; SNB-75 CNS; NCI-H23 lung; OVCAR-8 ovarian; T-47D breast; OVCAR-3 ovarian; HS 578T breast; EKVX NSCLC; HCC-2998 colon; PC-3 prostate; DU-145 prostate; MDA-MB-231 breast; SK-MEL-5 melanoma; A498 renal.
What all share (test): inhibition of tumour cell growth, NCI panel, 48 h

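48-hour exposure; five concentrations; linearly interpolated endpoints. TGI: concentration producing complete growth inhibition.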

Consider `NC(=S)NN=Cc1ccccc1OCc1cccc(COc2ccccc2C=NNC(N)=S)n1`, for which the TGI is 31.6 µM with IGROV1 ovarian; more than 100 µM with HL-60(TB) leukemia; more than 100 µM in the assay with A549 NSCLC; more than 100 µM in the assay with NCI-H522 lung; 19.3 µM in the assay with U251 CNS; more than 100 µM in the assay on M14 melanoma. The TGI with UACC-62 melanoma is more than 100 µM; with SNB-75 CNS it was 5.62 µM; in the assay with NCI-H23 lung, more than 100 µM; in the assay on OVCAR-8 ovarian, more than 100 µM; in the assay with T-47D breast, more than 100 µM; in the assay on OVCAR-3 ovarian, more than 100 µM. For the same compound, the TGI was more than 100 µM in the assay on HS 578T breast; more than 50.6 µM in the assay on EKVX NSCLC; more than 100 µM with HCC-2998 colon; more than 100 µM in the assay with PC-3 prostate; more than 45.6 µM with DU-145 prostate; 22.3 µM in the assay with MDA-MB-231 breast. The figures for the TGI in the assay on SK-MEL-5 melanoma and with A498 renal were more than 100 µM and 47.7 µM, respectively.

For `COC(=O)c1cc(C#N)[nH]c1-c1ccc(Br)s1`, the TGI with IGROV1 ovarian came to 20.9 µM; in the assay on HL-60(TB) leukemia, 36.5 µM; in the assay on A549 NSCLC it was 23 µM; in the assay with NCI-H522 lung, 19.6 µM; in the assay on U251 CNS it was 24.8 µM; in the assay on M14 melanoma, 22.9 µM. The TGI in the assay with UACC-62 melanoma turned out to be 26 µM; in the assay on SNB-75 CNS, 24.9 µM; in the assay with NCI-H23 lung, 18.9 µM; with OVCAR-8 ovarian, 27.1 µM; in the assay on T-47D breast, 17.2 µM; in the assay with OVCAR-3 ovarian, 15.9 µM. For the same compound, the TGI was 20.8 µM with HS 578T breast; 17.1 µM in the assay with EKVX NSCLC; 31.8 µM with HCC-2998 colon; 13.4 µM with PC-3 prostate; 31.6 µM in the assay on DU-145 prostate; 30.7 µM with MDA-MB-231 breast. Also, the TGI worked out at 15.3 µM in the assay on SK-MEL-5 melanoma and 9.9 µM in the assay with A498 renal.

On to `C=CC(=O)C#Cc1cnc(OC)nc1OC`, for which the TGI in the assay with IGROV1 ovarian was 53.6 µM; in the assay on HL-60(TB) leukemia, 3.25 µM; in the assay with A549 NSCLC, more than 100 µM; in the assay with NCI-H522 lung it was 42.7 µM; with U251 CNS, 18.7 µM; with M14 melanoma, 37.7 µM. Besides, the TGI is 34.4 µM in the assay on UACC-62 melanoma; 20.5 µM with SNB-75 CNS; 37.6 µM with NCI-H23 lung; more than 73.6 µM in the assay with OVCAR-8 ovarian; 55.8 µM in the assay with T-47D breast; 33.7 µM in the assay with OVCAR-3 ovarian. Further, the TGI is more than 88.3 µM in the assay with HS 578T breast; more than 72 µM with EKVX NSCLC; 42.2 µM with HCC-2998 colon; 42 µM in the assay with PC-3 prostate; more than 100 µM in the assay on DU-145 prostate; 38.1 µM in the assay with MDA-MB-231 breast. The TGI with SK-MEL-5 melanoma is 43.5 µM; with A498 renal, more than 69.1 µM.

Consider `O=[N+]([O-])c1ccc(C2=NOC(c3ccccc3)N2C23CC4CC(CC(C4)C2)C3)cc1` (configuration not stated), for which the TGI in the assay on IGROV1 ovarian is 72.5 µM; with HL-60(TB) leukemia, more than 100 µM; in the assay with A549 NSCLC, 96.7 µM; in the assay on NCI-H522 lung it was 35.3 µM; in the assay with U251 CNS it was more than 100 µM; with M14 melanoma, 88.4 µM. The TGI was 85.8 µM in the assay with UACC-62 melanoma; 63.7 µM in the assay on SNB-75 CNS; more than 100 µM with NCI-H23 lung; 48.4 µM in the assay with OVCAR-8 ovarian; more than 100 µM in the assay on T-47D breast; 50.1 µM in the assay on OVCAR-3 ovarian. Besides, the TGI is 52.6 µM with HS 578T breast; more than 100 µM with EKVX NSCLC; more than 100 µM in the assay with HCC-2998 colon; 43.8 µM in the assay with PC-3 prostate; 95 µM with DU-145 prostate; more than 100 µM in the assay on MDA-MB-231 breast. Further, the TGI is 38.4 µM with SK-MEL-5 melanoma and more than 100 µM in the assay on A498 renal.

`c1ccc(C2(c3cc4ccccc4[nH]3)OCCO2)nc1`: the TGI in the assay on IGROV1 ovarian, in the assay with HL-60(TB) leukemia, in the assay on A549 NSCLC, with U251 CNS, in the assay with M14 melanoma and in the assay on UACC-62 melanoma was more than 100 µM throughout. The TGI with SNB-75 CNS, in the assay on NCI-H23 lung, in the assay on OVCAR-8 ovarian, in the assay with T-47D breast, with OVCAR-3 ovarian and in the assay with HS 578T breast was more than 100 µM throughout. The TGI with EKVX NSCLC, in the assay on HCC-2998 colon, in the assay with PC-3 prostate, in the assay on DU-145 prostate, with MDA-MB-231 breast and in the assay with SK-MEL-5 melanoma was more than 100 µM each time. In the assay with A498 renal, the TGI is more than 100 µM.

With `C#CC(O)/C=C/C(O)CCCC(O)CC#CC(O)C#CCCCCC(O)/C=C/CCCCCC(=O)CCCCCCCCCCCCCC(O)C(O)C#CC(=O)O` (configuration not stated), the TGI in the assay with IGROV1 ovarian was 9.59 µM; in the assay with HL-60(TB) leukemia, more than 25 µM; in the assay with A549 NSCLC, more than 25 µM; with NCI-H522 lung, 9.83 µM; in the assay with U251 CNS, more than 25 µM; in the assay with M14 melanoma, more than 25 µM. Moreover, the TGI in the assay with UACC-62 melanoma, with SNB-75 CNS, with NCI-H23 lung, with OVCAR-8 ovarian, in the assay with T-47D breast and in the assay on HS 578T breast was more than 25 µM throughout. The TGI with EKVX NSCLC, in the assay on HCC-2998 colon, in the assay with PC-3 prostate, in the assay with DU-145 prostate, in the assay on MDA-MB-231 breast and in the assay with SK-MEL-5 melanoma was more than 25 µM throughout. Besides, the TGI with A498 renal was more than 25 µM.

With `COc1ccc(/C=N/NS(=O)(=O)c2ccc(/C=C3\NC(=O)NC3=O)cc2)cc1`, the TGI in the assay on IGROV1 ovarian, in the assay on HL-60(TB) leukemia, in the assay with A549 NSCLC, with U251 CNS, in the assay on M14 melanoma and in the assay on UACC-62 melanoma was more than 100 µM in each case. Besides, the TGI in the assay with SNB-75 CNS is 77.9 µM; with NCI-H23 lung, more than 100 µM; in the assay with OVCAR-8 ovarian it was more than 100 µM; in the assay with T-47D breast, more than 100 µM; in the assay on OVCAR-3 ovarian, more than 100 µM; with HS 578T breast, more than 100 µM. Besides, the TGI with EKVX NSCLC, in the assay on HCC-2998 colon, in the assay with PC-3 prostate, in the assay on DU-145 prostate, in the assay on MDA-MB-231 breast and with SK-MEL-5 melanoma was more than 100 µM each time. The TGI in the assay on A498 renal is more than 100 µM.

For the origin of these results see PubChem BioAssay (NCI).
